Source: patent US11358952B2, “Substituted 4-aminoisoindoline-1,3-dione compounds, compositions thereof, and methods of treatment therewith” (Celgene Corporation, priority 2018, dated 2022)

What follows are compounds tested on SU-DHL-4 cell line (assay: SU-DHL-4 cell proliferation assay (Cell Titer-Glo viability)). Conditions: Homo sapiens; cell viability IC50 activity level, DLBCL cell line SU-DHL-4, 120 hours post-treatment; read-out: SU-DHL-4 Act.
Type: cell-based
Method: SU-DHL-4 Cell Proliferation Assay.
The following is an example of an assay that can be used to determine the anti-proliferative activity of Isoindolinedione Compounds in a DLBCL cell line, for example, the SU-DHL-4 cell line (Deutsche Sammlung von Mikroorganismen and Zellkulturen GmbH [DSMZ]: catalogue number ACC-495) at 120 hours post-treatment. The seeding density for SU-DHL-4 can be optimized to ensure assay linearity in 1536-well plates.
Increasing concentrations of test compounds (0.5 nM to 10 μM) were spotted in a 20-point dilution fashion (unevenly spaced data points) via an acoustic dispenser (EDC ATS-100) into an empty 1536-well plate. The DMSO concentration was kept constant for a final assay concentration of 0.1% DMSO. Prior to testing, SU-DHL-4 cells were grown in RPMI-1640 (Roswell Park Memorial Institute—1640) medium with 10% FBS (fetal bovine serum: HyClone) and expanded in culture flasks to provide sufficient amounts of starting material. Cells were then diluted to 500 cells per well in a 5 μL volume, and added directly to the compound-spotted 1536-well plates. Cells were allowed to grow for 120 hours in 5% CO2 at 37° C. At the time when exposure of cells to compound began (to), initial viable cell number was assessed via Cell Titer-Glo® Luminescent Cell Viability Assay at a 1 vol:2 vol ratio according to manufacturer's instructions (Promega Corporation, Madison, Wis.) by quantifying the level of luminescence generated by adenosine-5′-triphosphate (ATP) present in viable cells. After 120 hours, cell viability of the treated cells was assessed via Cell Titer-Gb® and read for luminescence. All growth inhibition curves were processed and evaluated using Activity Base (IDBS, Alameda, Calif.). Cell viability IC50 values were calculated using a four parameter logistic model (sigmoidal dose-response model): y=(A+((B−A)/(1+((C/x)^D)))) wherein: A=YMin B=YMax C=EC50 D=Hill slope IC50=the concentration of the compound when Y=50% of DMSO control Y=cell viability measured as luminescence unit, and x=concentration of compound.

**Q.** `O=C1CCC(N2C(=O)c3cccc(NCc4ccc(CN5C[C@@H]6CC(c7ccc(F)cc7)=C[C@@H]6C5)cc4)c3C2=O)C(=O)N1` (stereo in doubt) [Cpd 59, 2-(2,6-dioxopiperidin-3-yl)-4-(4-(((3aS,6aR)-5-(4-fluorophenyl)-3,3a,6,6a-tetrahydrocyclopenta[c]pyrrol-2(1H)-yl)methyl)benzylamino)isoindoline-1,3-dione] was tested. Which IC50 did it give?
**A.** < 200 nM

**Q.** How did the IC50 turn out when `O=C1CCC(N2C(=O)c3cccc(NCc4ccc(CN5CCN(c6ccc(F)cc6F)CC5)cc4)c3C2=O)C(=O)N1` (stereo not shown) [Cpd 1, 4-(4-((4-(2,4-difluorophenyl)piperazin-1-yl)methyl)benzylamino)-2-(2,6-dioxopiperidin-3-yl)isoindoline-1,3-dione] was run?
**A.** 501 to 750 nM

**Q.** Which IC50 does the source give for `O=C1CCC(N2C(=O)c3cccc(NCc4ccc(CN5CCN(c6ccc(F)cc6)CC5)cc4)c3C2=O)C(=O)N1` (stereo not shown) [Cpd 2, 2-(2,6-dioxopiperidin-3-yl)-4-(4-((4-(4-fluorophenyl)piperazin-1-yl)methyl)benzylamino)isoindoline-1,3-dione] here?
**A.** 501 to 750 nM

**Q.** `O=C1CCC(N2C(=O)c3cccc(NCc4ccc(CN5CCN(c6ccc(Cl)cc6)CC5)cc4)c3C2=O)C(=O)N1` (stereo not shown) [Cpd 3, 4-(4-((4-(4-chlorophenyl)piperazin-1-yl)metthyl)benzylamino)-2-(2,6-dioxopiperidin-3-yl)isoindoline-1,3-dione] was tested. Which IC50 did it give?
**A.** 200 to 500 nM

**Q.** For `O=C1CCC(N2C(=O)c3cccc(NCc4ccc(CN5CCN(c6ccc(Cl)cc6Cl)CC5)cc4)c3C2=O)C(=O)N1` (stereo not shown) [Cpd 4, 4-(4-((4-(2,4-dichlorophenyl)piperazin-1-yl)methyl)benzylamino)-2-(2,6-dioxopiperidin-3-yl)isoindoline-1,3-dione], which IC50 is on record?
**A.** 501 to 750 nM

**Q.** With `CC(C)C1CCN(Cc2ccc(CNc3cccc4c3C(=O)N(C3CCC(=O)NC3=O)C4=O)cc2)CC1` (stereo not shown) [Cpd 5, 2-(2,6-dioxopiperidin-3-yl)-4-(4-((4-isopropylpiperidin-1-yl)methyl)benzylamino)isoindoline-1,3-dione] as the compound, how does the IC50 read?
**A.** < 200 nM

**Q.** With `O=C1CCC(N2C(=O)c3cccc(NCc4ccc(CN5CC(c6ccccc6)C5)cc4)c3C2=O)C(=O)N1` (stereo not shown) [Cpd 6, 2-(2,6-dioxopiperidin-3-yl)-4-(4-((3-phenylazetidin-1-yl)methyl)benzylamino)isoindoline-1,3-dione] as the compound, how does the IC50 read?
**A.** 501 to 750 nM

**Q.** For `N#Cc1ccc(C2CN(Cc3ccc(CNc4cccc5c4C(=O)N(C4CCC(=O)NC4=O)C5=O)cc3)C2)cc1` (stereo not shown) [Cpd 7, 4-(1-(4-((2-(2,6-dioxopiperidin-3-yl)-1,3-dioxoisoindolin-4-ylamino)methyl)benzyl)azetidin-3-yl)benzonitrile], which IC50 is on record?
**A.** < 200 nM

**Q.** With `Cc1cc(C#N)ccc1N1CCN(Cc2ccc(CNc3cccc4c3C(=O)N(C3CCC(=O)NC3=O)C4=O)cc2)CC1` (stereo not shown) [Cpd 8, 4-(4-(4-((2-(2,6-dioxopiperidin-3-yl)-1,3-dioxoisoindolin-4-ylamino)methyl)benzyl)piperazin-1-yl)-3-methylbenzonitrile] as the compound, how does the IC50 read?
**A.** 200 to 500 nM

**Q.** How did the IC50 turn out when `N#Cc1ccc(N2CCN(Cc3ccc(CNc4cccc5c4C(=O)N(C4CCC(=O)NC4=O)C5=O)cc3)CC2)c(Cl)c1` (stereo not shown) [Cpd 9, 3-chloro-4-(4-(4-((2-(2,6-dioxopiperidin-3-yl)-1,3-dioxoisoindolin-4-ylamino)methyl)benzyl)piperazin-1-yl)benzonitrile] was run?
**A.** < 200 nM

**Q.** Which IC50 does the source give for `O=C1CCC(N2C(=O)c3cccc(NCc4ccc(CN5CCN(c6ccc(C(F)(F)F)nc6)CC5)cc4)c3C2=O)C(=O)N1` (stereo not shown) [Cpd 10, 2-(2,6-dioxopiperidin-3-yl)-4-(4-((4-(6-(trifluoromethyl)pyridin-3-yl)piperazin-1-yl)methyl)benzylamino)isoindoline-1,3-dione] here?
**A.** 200 to 500 nM

**Q.** Which IC50 does the source give for `N#Cc1cc(F)c(N2CCN(Cc3ccc(CNc4cccc5c4C(=O)N(C4CCC(=O)NC4=O)C5=O)cc3)CC2)c(Cl)c1` (stereo not shown) [Cpd 11, 3-chloro-4-(4-(4-((2-(2,6-dioxopiperidin-3-yl)-1,3-dioxoisoindolin-4-ylamino)methyl)benzyl)piperazin-1-yl)-5-fluorobenzonitrile] here?
**A.** 501 to 750 nM

**Q.** For `O=C1CCC(N2C(=O)c3cccc(NCc4ccc(CN5CCN(c6ccccc6Cl)CC5)cc4)c3C2=O)C(=O)N1` (stereo not shown) [Cpd 12, 4-(4-((4-(2-chlorophenyl)piperazin-1-yl)methyl)benzylamino)-2-(2,6-dioxopiperidin-3-yl)isoindoline-1,3-dione], which IC50 is on record?
**A.** 200 to 500 nM

**Q.** Which IC50 does the source give for `O=C1CCC(N2C(=O)c3cccc(NCc4ccc(CN5CC(c6cccc(F)c6)C5)cc4)c3C2=O)C(=O)N1` (stereo not shown) [Cpd 13, 2-(2,6-dioxopiperidin-3-yl)-4-(4-((3-(3-fluorophenyl)azetidin-1-yl)methyl)benzylamino)isoindoline-1,3-dione] here?
**A.** 501 to 750 nM

**Q.** `O=C1CCC(N2C(=O)c3cccc(NCc4ccc(CN5CC(c6ccc(F)cc6)C5)cc4)c3C2=O)C(=O)N1` (stereo not shown) [Cpd 14, 2-(2,6-dioxopiperidin-3-yl)-4-(4-((3-(4-fluorophenyl)azetidin-1-yl)methyl)benzylamino)isoindoline-1,3-dione] was tested. Which IC50 did it give?
**A.** 200 to 500 nM

**Q.** `N#Cc1cccc(C2CN(Cc3ccc(CNc4cccc5c4C(=O)N(C4CCC(=O)NC4=O)C5=O)cc3)C2)c1` (stereo not shown) [Cpd 15, 3-(1-(4-((2-(2,6-dioxopiperidin-3-yl)-1,3-dioxoisoindolin-4-ylamino)methyl)benzyl)azetidin-3-yl)benzonitrile] was tested. Which IC50 did it give?
**A.** 751 to 1000 nM

**Q.** How did the IC50 turn out when `O=C1CCC(N2C(=O)c3cccc(NCc4ccc(CN5CC(c6ccccn6)C5)cc4)c3C2=O)C(=O)N1` (stereo not shown) [Cpd 16, 2-(2,6-dioxopiperidin-3-yl)-4-(4-((3-(pyridin-2-yl)azetidin-1-yl)methyl)benzylamino)isoindoline-1,3-dione] was run?
**A.** < 200 nM

**Q.** `NC(=O)c1ccc(N2CCN(Cc3ccc(CNc4cccc5c4C(=O)N(C4CCC(=O)NC4=O)C5=O)cc3)CC2)cn1` (stereo not shown) [Cpd 17, 5-(4-(4-((2-(2,6-dioxopiperidin-3-yl)-1,3-dioxoisoindolin-4-ylamino)methyl)benzyl)piperazin-1-yl)picolinamide] was tested. Which IC50 did it give?
**A.** < 200 nM

**Q.** `O=C1CCC(N2C(=O)c3cccc(NCc4ccc(CN5CCN(c6ccc(Cl)cn6)CC5)cc4)c3C2=O)C(=O)N1` (stereo not shown) [Cpd 18, 4-(4-((4-(5-chloropyridin-2-yl)piperazin-1-yl)methyl)benzylamino)-2-(2,6-dioxopiperidin-3-yl)isoindoline-1,3-dione] was tested. Which IC50 did it give?
**A.** 751 to 1000 nM

**Q.** With `O=C1CCC(N2C(=O)c3cccc(NCc4ccc(CN5CCC(F)(c6ccccn6)CC5)cc4)c3C2=O)C(=O)N1` (stereo not shown) [Cpd 19, 2-(2,6-dioxopiperidin-3-yl)-4-(4-((4-fluoro-4-(pyridin-2-yl)piperidin-1-yl)methyl)benzylamino)isoindoline-1,3-dione] as the compound, how does the IC50 read?
**A.** 501 to 750 nM

**Q.** For `O=C1CCC(N2C(=O)c3cccc(NCc4ccc(CN5CCC(c6cc(F)cc(F)c6)CC5)cc4)c3C2=O)C(=O)N1` (stereo not shown) [Cpd 20, 4-(4-((4-(3,5-difluorophenyl)piperidin-1-yl)methyl)benzylamino)-2-(2,6-dioxopiperidin-3-yl)isoindoline-1,3-dione], which IC50 is on record?
**A.** 200 to 500 nM

**Q.** Which IC50 does the source give for `O=C1CCC(N2C(=O)c3cccc(NCc4ccc(CN5CCC6(CC5)CC6)cc4)c3C2=O)C(=O)N1` (stereo not shown) [Cpd 21, 4-(4-(6-azaspiro[2.5]octan-6-ylmethyl)benzylamino)-2-(2,6-dioxopiperidin-3-yl)isoindoline-1,3-dione] here?
**A.** 501 to 750 nM

**Q.** For `CCC1CCN(Cc2ccc(CNc3cccc4c3C(=O)N(C3CCC(=O)NC3=O)C4=O)cc2)CC1` (stereo not shown) [Cpd 22, 2-(2,6-dioxopiperidin-3-yl)-4-(4-((4-ethylpiperidin-1-yl)methyl)benzylamino)isoindoline-1,3-dione], which IC50 is on record?
**A.** 200 to 500 nM

**Q.** With `O=C1CCC(N2C(=O)c3cccc(NCc4ccc(CN5CCC6(CCC6)CC5)cc4)c3C2=O)C(=O)N1` (stereo not shown) [Cpd 23, 4-(4-(7-azaspiro[3.5]nonan-7-ylmethyl)benzylamino)-2-(2,6-dioxopiperidin-3-yl)isoindoline-1,3-dione] as the compound, how does the IC50 read?
**A.** < 200 nM

**Q.** With `CC(C)OC1CCN(Cc2ccc(CNc3cccc4c3C(=O)N(C3CCC(=O)NC3=O)C4=O)cc2)CC1` (stereo not shown) [Cpd 24, 2-(2,6-dioxopiperidin-3-yl)-4-(4-((4-isopropoxypiperidin-1-yl)methyl)benzylamino)isoindoline-1,3-dione] as the compound, how does the IC50 read?
**A.** 200 to 500 nM

**Q.** `O=C1CCC(N2C(=O)c3cccc(NCc4ccc(CN5CCC(n6cccn6)CC5)cc4)c3C2=O)C(=O)N1` (stereo not shown) [Cpd 25, 4-(4-((4-(1H-pyrazol-1-yl)piperidin-1-yl)methyl)benzylamino)-2-(2,6-dioxopiperidin-3-yl)isoindoline-1,3-dione] was tested. Which IC50 did it give?
**A.** 200 to 500 nM

**Q.** For `O=C1CCC(N2C(=O)c3cccc(NCc4ccc(CN5CCC(C(F)(F)F)CC5)cc4)c3C2=O)C(=O)N1` (stereo not shown) [Cpd 26, 2-(2,6-dioxopiperidin-3-yl)-4-(4-((4-(trifluoromethyl)piperidin-1-yl)methyl)benzylamino)isoindoline-1,3-dione], which IC50 is on record?
**A.** 200 to 500 nM

**Q.** How did the IC50 turn out when `Cc1cc(C#N)cc(F)c1N1CCN(Cc2ccc(CNc3cccc4c3C(=O)N(C3CCC(=O)NC3=O)C4=O)cc2)CC1` (stereo not shown) [Cpd 27, 4-(4-(4-((2-(2,6-dioxopiperidin-3-yl)-1,3-dioxoisoindolin-4-ylamino)methyl)benzyl)piperazin-1-yl)-3-fluoro-5-methylbenzonitrile] was run?
**A.** 200 to 500 nM
